Data published in PMC6364417, “Kinase inhibitor library screening identifies synergistic drug combinations effective in sensitive and resistant melanoma cells” (Journal of Experimental & Clinical Cancer Research : CR, 2019).
Read-outs that look alike come from different tables or passages of the source.

Key:
A375 cells (parental) [1] = assay: Dose-response curves and IC50, PrestoBlue cell viability, 72 h; assay type: cell-based, human; settings: for IC50: read-out: Half-maximal inhibitory concentration value (IC50), Mean
[2] = system: A375-GP cells (Dabrafenib-resistant); assay: as above; assay type: cell-based, human; settings: n.e. = did not suppress growth below 50% in the tested concentration range; for IC50: read-out: Half-maximal inhibitory concentration value (IC50), Mean
[3] = system: A375-XP cells (Vemurafenib-resistant); assay: as above; assay type: cell-based, human; settings: n.e. = did not suppress growth below 50% in the tested concentration range; for IC50: read-out: Half-maximal inhibitory concentration value (IC50), Mean
A375 cells (parental) [4] = assay: Kinase inhibitor library screening, PrestoBlue cell viability, 1 or 10 μM, 72 h; settings: A375 Parental, 72 h
[5] = system: IGR37-GP cells (Dabrafenib-resistant); assay: as above; settings: IGR37 GP, 72 h
[6] = system: A375-GP cells (Dabrafenib-resistant); assay: as above; settings: A375 GP, 72 h
IGR37 cells (parental) = assay: as above; settings: IGR37 Parental, 72 h
[7] = system: IGR37-XP cells (Vemurafenib-resistant); assay: as above; settings: IGR37 XP, 72 h
[8] = system: A375-XP cells (Vemurafenib-resistant); assay: as above; settings: A375 XP, 72 h
[9] = system: 501Mel-GP cells (Dabrafenib-resistant); assay: as above; settings: 501Mel GP, 72 h
501Mel cells (parental) = assay: as above; settings: 501Mel Parental, 72 h
Outline: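 Readout: PrestoBlue signal on a monochromator plate reader, given as percent viability relative to untreated controls. Parental and drug-resistant (Vemurafenib XP, Dabrafenib GP) sublines were tested; at least duplicates per line.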

[10] = system: 501Mel-XP cells (Vemurafenib-resistant); assay: as above; settings: 501Mel XP, 72 h
[11] = Homo sapiens, A-375, n.e. = did not suppress growth below 50% in the tested concentration range
[12] = n.e. = did not suppress growth below 50% in the tested concentration range

CNC(=O)c1cc(Oc2ccc(NC(=O)Nc3ccc(Cl)c(C(F)(F)F)c3)c(F)c2)ccn1 [Regorafenib]
IC50 (A375 cells (parental) [1]; [11]): 2730 nM
IC50 ([2]; Homo sapiens): 701 nM
IC50 ([3]; Homo sapiens): 1710 nM

CCC[C@H](NC(=O)/C(C#N)=C/c1cccc(Br)n1)c1ccccc1 [WP1130, reference compound]
IC50 (A375 cells (parental) [1]; [12]): 1620 nM
cell viability, A375 Parental, 1μΜ (A375 cells (parental) [4]; 1μΜ, in %): 89.3
cell viability, A375 Parental, 10μΜ (A375 cells (parental) [4]; 10μΜ, in %): 0.545
cell viability, IGR37 GP, 10μΜ ([5]; 10μΜ): 1.9%
cell viability, IGR37 GP, 1μΜ ([5]; 1μΜ, in %): 96.2
cell viability, A375 GP, 1μΜ ([6]; 1μΜ, in %): 87.1
cell viability, A375 GP, 10μΜ ([6]; 10μΜ, in %): 1.1
cell viability, IGR37 Parental, 1μΜ (IGR37 cells (parental); 1μΜ, in %): 99.4
cell viability, IGR37 Parental, 10μΜ (IGR37 cells (parental); 10μΜ, in %): -1.6
cell viability, IGR37 XP, 10μΜ ([7]; 10μΜ): 1.1%
cell viability, IGR37 XP, 1μΜ ([7]; 1μΜ, in %): 99.1
cell viability, A375 XP, 1μΜ ([8]; 1μΜ, in %): 57.6
cell viability, A375 XP, 10μΜ ([8]; 10μΜ, in %): 0.429
cell viability, 501Mel GP, 1μΜ ([9]; 1μΜ, in %): 104.8
cell viability, 501Mel GP, 10μΜ ([9]; 10μΜ, in %): -0.156
cell viability, 501Mel Parental, 1μΜ (501Mel cells (parental); 1μΜ, in %): 93.7
cell viability, 501Mel Parental, 10μΜ (501Mel cells (parental); 10μΜ, in %): 0.6
cell viability, 501Mel XP, 1μΜ ([10]; 1μΜ, in %): 103.9
cell viability, 501Mel XP, 10μΜ ([10]; 10μΜ, in %): -0.185
IC50 [2]: 1580 nM
IC50 [3]: 1550 nM

CCN(CCCOc1ccc2c(Nc3cc(CC(=O)Nc4cccc(F)c4)n[nH]3)ncnc2c1)CCOP(=O)(O)O [Barasertib]
Half-maximal inhibitory concentration value (IC50), Mean (A375 cells (parental) [1]; [12]): n.e.
Half-maximal inhibitory concentration value (IC50), Mean [2]: n.e.
Half-maximal inhibitory concentration value (IC50), Mean [3]: n.e.

CC(C)CC(=O)Nc1[nH]nc2c1CN(C(=O)C1CCN(C)CC1)C2(C)C [PHA-793887, reference compound]
IC50 (A375 cells (parental) [1]; [11]): 578 nM
cell viability (kinase inhibitor library screening) (A375 cells (parental) [4]; 10μΜ): 8.5%
cell viability (kinase inhibitor library screening) (A375 cells (parental) [4]; 1μΜ): 47.0%
cell viability (kinase inhibitor library screening) ([5]; 1μΜ): 96.5%
cell viability (kinase inhibitor library screening) ([5]; 10μΜ): 23.5%
cell viability (kinase inhibitor library screening) ([6]; 1μΜ): 52.2%
cell viability (kinase inhibitor library screening) ([6]; 10μΜ): 4.2%
cell viability (kinase inhibitor library screening) (IGR37 cells (parental); 1μΜ): 100.2%
cell viability (kinase inhibitor library screening) (IGR37 cells (parental); 10μΜ): 41.8%
cell viability (kinase inhibitor library screening) ([7]; 1μΜ): 87.3%
cell viability (kinase inhibitor library screening) ([7]; 10μΜ): 5.3%
cell viability (kinase inhibitor library screening) ([8]; 1μΜ): 60.1%
cell viability (kinase inhibitor library screening) ([8]; 10μΜ): 10.2%
cell viability (kinase inhibitor library screening) ([9]; 10μΜ): 25.0%
cell viability (kinase inhibitor library screening) (501Mel cells (parental); 1μΜ): 90.8%
cell viability (kinase inhibitor library screening) (501Mel cells (parental); 10μΜ): 20.0%
cell viability (kinase inhibitor library screening) ([10]; 1μΜ): 88.3%
cell viability (kinase inhibitor library screening) ([10]; 10μΜ): 13.3%
IC50 ([2]; Homo sapiens): 720 nM
IC50 ([3]; Homo sapiens): 1050 nM

Cn1cnc2c(F)c(Nc3ccc(Br)cc3Cl)c(C(=O)NOCCO)cc21 [AZD6244]
Half-maximal inhibitory concentration value (IC50), Mean (A375 cells (parental) [1]; [12]): n.e.
Half-maximal inhibitory concentration value (IC50), Mean [2]: n.e.
Half-maximal inhibitory concentration value (IC50), Mean [3]: n.e.
